Data taken from article PMC4564450, “Oral and inhaled p38 MAPK inhibitors: effects on inhaled LPS challenge in healthy subjects” (European Journal of Clinical Pharmacology, 2015).

Legend:
[1] = system: phospho-p38 expression in sputum macrophages; test: Immunocytochemistry of sputum macrophages: phospho-p38; format: in vivo, human; settings: study 2; for mean percentage of macrophages expressing phospho-p38: PH-797804 30 mg oral or PF-03715455 20 mg inhaled, Post-LPS
Method: (§1) Frozen cytospins created from sputum cells were analysed for phosphorylated-Heat Shock Protein 27 (phospho-HSP27) and phospho-p38 expression in sputum macrophages. The methods are fully described in the online supplement. Phospho-p38 and phospho-HSP27 immunoreactivity is presented as percentage of the macrophage population. All analyses were carried out by blinded observers.
Frozen cytospins created from sputum cells were thawed and the cells were fixed in 4% paraformaldehyde in PBS for 10 minutes at room temperature, followed by blocking in normal serum. Cytospins were then incubated with the following primary antibodies overnight at 4 °C; anti-human phosphorylated-p38 (phospho-p38) MAPK (Thr180/Tyr182) antibody (Cat No. 9211S, New England Biolabs, Herts, UK) or phosphorylated-Heat Shock Protein 27 (phospho-HSP27 [Cat No. S82, New England Biolabs]) diluted 1:50 in 1.5% normal serum with 0.5% Triton X-100 (Sigma-Aldrich). Endogenous peroxidase was quenched by incubating cytospins in 3% H2O2 in methanol (0.3% for phospho-p38). Phospho-p38 and phospho-HSP27 were detected using biotinylated goat anti-rabbit IgG secondary antibody (Vector Labs, Peterborough, UK) in conjunction with an avidin–biotin peroxidase complex (Vector Labs) and 3,3’-diaminobenzidine (DAB) substrate. Cell nuclei were counterstained with Gill’s haematoxylin (Sigma-Aldrich). Omission of primary antibody in staining protocol was used as a negative control.
(§2) Digital micrographs were obtained through the use of a Nikon Eclipse 80i microscope (Nikon UK Ltd, Surrey, UK) equipped with a QImaging digital camera (Media cybernetics, Marlow, UK) and ImageProPlus 5.1 software (Media Cybernetics). Sputum macrophages (determined by morphology) were analysed for phospho-p38 and phospho-HSP27 expression following single label immunohistochemistry utilising the ImagePro Plus image analysis software; at least 200 macrophages per cytospin were counted. Phospho-p38 and phospho-HSP27 immunoreactivity was presented as percentage of the macrophage population. All analysis was carried out by blinded observers.

[2] = system: sputum neutrophils and macrophages after inhaled LPS; test: Inhaled LPS challenge in healthy subjects: induced sputum cell counts; format: in vivo, human; settings: for attenuation of the modelled LPS response (sputum neutrophil percentage): PH-797804: studies 1 and 2, PF-03715455: study 2; for Mean (SD) sputum neutrophil percentage: 6 h post-LPS; for Macrophage Differential in sputum / Total Cell Count in sputum / Total Macrophage Count in sputum / Total Neutrophil Count in sputum: ANCOVA model mean; for Macrophage Differential in sputum, difference between the active treatment mean and the placebo mean: footnote: difference, not ratio
Method: Three randomised, double-blind, placebo-controlled crossover studies were performed; the effects of a single dose of active treatment was investigated in all three studies. […] Studies 2 and 3 were conducted at two UK centres: Quintiles Drug Research Unit, London, and Medicines Evaluation Unit, Manchester. […] The studies were performed during the following time periods: study 1, Sep 2006–Mar 2008; study 2, Jan 2011–Dec 2011; and study 3, Jul 2011–Jan 2012. The design of all three studies was similar. A baseline sputum sample was obtained within 14 days of the first study period when subjects were administered a single dose of randomised treatment. […] Induced sputum was obtained 6 h later to coincide with the maximal inflammatory response caused by inhaled LPS. […] This criterion was used to ensure that sputum cell counts after LPS challenge had returned to close to the original baseline values; this was done to reduce data variability between treatment periods. […] For each challenge, a 1-mg vial of lyophilised LPS (Escherichia coli serotype O26:B6, ref. L-2654, Sigma-Aldrich, Dorset, UK) was diluted with 4 mL of 0.9 % w/v sodium chloride. The reconstitution produced a 0.25 mg/mL solution, of which 2 mL was placed into the pre-calibrated dosimeter pot and administered via five inhalations from a breath-activated dosimeter (Mefar dosimeter MB3, Brescia, Italy). Each inhalation was performed over 3 s with a 6-s breath hold. […] Sputum was induced using normal saline after inhalation of salbutamol, and processing was performed using dithiothreitol (DTT) as previously described. The supernatants were stored at −80 °C for later analysis, while cells were used to produce cytoslides (Cytospin 4, Shandon, Runcorn, UK) for differential cell counting and immunocytochemistry. […] Cell viability was analysed by trypan blue exclusion. Cytoslides with % squamous cell counts <20 % were deemed to be of acceptable quality for differential cell counting. Unfixed cytoslides were wrapped in aluminium foil and stored frozen at −80 °C for immunocytochemistry. Sputum neutrophil percentage was the primary endpoint for all three studies. The neutrophil percentage was modelled using a mixed effects analysis of covariance (ANCOVA) model appropriate for a two-period, two-treatment or three-period, three-treatment crossover design. The fixed effects in the model were treatment and period. Subjects were modelled as a random effect. Additionally, the period-specific baseline was modelled as a covariate. This model was used for all sputum inflammatory markers, including the immunohistocytochemistry, where cell counts were log transformed before analyzing the data and percent differentials were not transformed. […] Ninety percent confidence intervals of the difference (non-transformed data) or the ratio (log-transformed data) were constructed based on the ANCOVA model.

[3] = system: phospho-HSP27 expression in sputum macrophages; test: Immunocytochemistry of sputum macrophages: phospho-HSP27; format: in vivo, human; settings: study 2; PH-797804 30 mg oral or PF-03715455 20 mg inhaled; Post-LPS
Method: as §1
Frozen cytospins created from sputum cells were thawed and the cells were fixed in 4% paraformaldehyde in PBS for 10 minutes at room temperature, followed by blocking in normal serum. […] Phospho-p38 and phospho-HSP27 were detected using biotinylated goat anti-rabbit IgG secondary antibody (Vector Labs, Peterborough, UK) in conjunction with an avidin–biotin peroxidase complex (Vector Labs) and 3,3’-diaminobenzidine (DAB) substrate. […]
as §2, with “Phospho-p38 and phospho-HSP27 immunoreactivity was presented as percentage of the macrophage population. All analysis was carried out by blinded observers.” left out

[4] = system: IL-6, MPO, MCP-1 and MIP-1β in sputum supernatant; test: Inhaled LPS challenge: sputum supernatant protein biomarkers; format: in vivo, human; settings: for Sputum IL-6, mean / Sputum MCP-1, mean / Sputum MIP-1β, mean / Sputum MPO, mean: post LPS
Method: A baseline sputum sample was obtained within 14 days of the first study period when subjects were administered a single dose of randomised treatment. […] Induced sputum was obtained 6 h later to coincide with the maximal inflammatory response caused by inhaled LPS. A washout period of at least 21 days followed, with subjects returning after 14 days of the washout period for induced sputum sampling; this was performed to ensure that the total cell count, total neutrophil count and total macrophage count were within the range of −80 to +100 % of the screening values. […] If these criteria were not met, then up to two repeat visits to obtain sputum were allowed, with at least 4 days between sputum inductions. The next randomised treatment day was scheduled at least 4 days after sputum induction and was identical to the first treatment day.
Sputum was induced using normal saline after inhalation of salbutamol, and processing was performed using dithiothreitol (DTT) as previously described [20]. The supernatants were stored at −80 °C for later analysis, while cells were used to produce cytoslides (Cytospin 4, Shandon, Runcorn, UK) for differential cell counting and immunocytochemistry. Cytoslides for differential cell count were fixed in methanol (Sigma) and then stained with Rapi-Diff® (GCC Diagnostics, Sandyhurst, UK) or Wright-modified Giemsa (Accustatin WG-18, Sigma-Aldrich); a minimum of 400 non-squamous cells were counted and differential cell counts obtained as percentage of total non-squamous cells. Cell viability was analysed by trypan blue exclusion. Cytoslides with % squamous cell counts <20 % were deemed to be of acceptable quality for differential cell counting. Unfixed cytoslides were wrapped in aluminium foil and stored frozen at −80 °C for immunocytochemistry.
In studies 1 and 2, sputum supernatants were analysed for interleukin 6 (IL-6), myeloperoxidase (MPO), monocyte chemotactic protein-1 (MCP-1) and macrophage inflammatory protein-1β (MIP-1 β), using electrochemiluminescent immunoassays (ECLIA) or enzyme-linked immunosorbent assays (ELISA); the manufacturers are listed in the online supplement. In study 3, sputum supernatants were analysed for IL-6, MCP-1 and MIP-1β by the same method.

[5] = healthy subjects; ref previous phase 1 studies (unpublished); cited from earlier work
[6] = Plasma pharmacokinetics (sparse sampling); format: in vivo, human; settings: for Plasma concentration: PF-03715455 20 mg inhaled; for concentration at 23 h / concentration at 30.5 h: human, plasma, po, 30 mg, PH-797804 30 mg oral; for concentration at 23 h: 23 h post dose; for concentration at 30.5 h: 30.5 h post dose
[7] = Drug concentration in sputum supernatant; format: in vivo, human; settings: study 2, ten subjects, PF-03715455 inhaled dose, PH-797804 oral dose
[8] = system: IL-8 production from epithelial cells; design: method as in Pfizer, data on file; settings: ref Pfizer, data on file; cited from earlier work
[9] = study 2, PH-797804 30 mg oral (p = 0.0001) or PF-03715455 20 mg inhaled (p = 0.031), single dose
[10] = study 2, PH-797804 30 mg oral or PF-03715455 20 mg inhaled, single dose
[11] = study 2, PH-797804 30 mg oral or PF-03715455 20 mg inhaled, post LPS
[12] = study 2, post LPS, listed as PF-03715445
[13] = study 2, PH-797804 30 mg oral or PF-03715455 20 mg inhaled
[14] = study 1, PH-797804 30 mg oral, post LPS

geometric mean sputum concentration [7]	sputum concentration, range [7]	SMILES	mean percentage of macrophages expressing phospho-p38 [1]	attenuation of the modelled LPS response (sputum neutrophil percentage) [2]	reduction in mean sputum neutrophil percentage post-LPS compared to placebo [2, 9]	Mean (SD) sputum neutrophil percentage [2, 10]	Macrophage Differential in sputum [2, 11]	Total Cell Count in sputum [2, 11]	Total Macrophage Count in sputum [2, 11]	Total Neutrophil Count in sputum [2, 11]	mean percentage of macrophages expressing phospho-HSP27 [3]	sputum supernatant IL-6, MPO, MCP-1 and MIP-1β levels compared to placebo [4, 13]	Sputum IL-6, mean [4, 13]	Sputum MCP-1, mean [4, 13]	Sputum MIP-1β, mean [4, 13]	Sputum MPO, mean [4, 13]	time of maximum systemic concentration (tmax) [5]	IL-8 production from epithelial cells [8]	other results
20 nM	4 to 73 nM	CC(C)(C)c1cc(NC(=O)NCc2ccccc2Sc2ccc3nnc(-c4ccccc4SCCO)n3c2)n(-c2ccc(O)c(Cl)c2)n1 [PF-03715455]	25.03%	approximately 25%	8.0%	66.4 (14.0) %	30.78%	3.83e+06 g⁻¹	1.09e+06 g⁻¹	2.43e+06 g⁻¹	26.89%	no effects	91.67 pg/mL	115.38 pg/mL	396.35 pg/mL	937.04 ng/mL	~30 min	significantly inhibit	attenuation of the baseline measurements (macrophages expressing phospho-P38 and phospho-HSP27) ([1]; PF-03715455 20 mg inhaled): 45–50%; Total Cell Count in sputum, Ratio of Means active/placebo ([2]; study 2, post LPS): 1.02; Total Macrophage Count in sputum, Ratio of Means active/placebo ([2]; study 2, post LPS): 1.62; Total Neutrophil Count in sputum, Ratio of Means active/placebo ([2]; study 2, post LPS): no effects; Macrophage Differential in sputum, difference between the active treatment mean and the placebo mean ([2]; study 2, post LPS): significantly attenuated; Macrophage Differential in sputum, difference between the active treatment mean and the placebo mean [2, 12]: 7.97%; Total Neutrophil Count in sputum, Ratio of Means active/placebo [2, 12]: 0.85; Plasma concentration ([6]; study 2, 1.5 h post dose): 472.6 (116.4) pg/mL; Plasma concentration ([6]; study 2, 6.5 h post dose): 110.6 (29.7) pg/mL
4 nM	2 to 7 nM	CNC(=O)c1ccc(C)c(-n2c(C)cc(OCc3ccc(F)cc3F)c(Br)c2=O)c1 [PH-797804]	38.00%	approximately 50%	15.3%	60.4 (17.9) %	36.39%	2.02e+06 g⁻¹	620000 g⁻¹	1.17e+06 g⁻¹	42.27%	significantly reduced	69.02 pg/mL	133.41 pg/mL	609.10 pg/mL	485.28 ng/mL	approximately 24 h	significantly inhibit	Mean (SD) sputum neutrophil percentage ([2]; study 1, PH-797804 30 mg oral single dose): 56.4 (24.0) %; reduction in mean sputum neutrophil percentage post-LPS compared to placebo ([2]; study 1, PH-797804 30 mg oral single dose, p = 0.0096): 15.1%; Total Macrophage Count in sputum [2, 14]: 470000 g⁻¹; Total Neutrophil Count in sputum [2, 14]: 660000 g⁻¹; Sputum IL-6, mean ([4]; study 1, PH-797804 30 mg oral): 29.66 pg/mL; Sputum MCP-1, mean ([4]; study 1, PH-797804 30 mg oral): 155.07 pg/mL; Sputum MIP-1β, mean ([4]; study 1, PH-797804 30 mg oral): 330.54 pg/mL; Sputum MPO, mean ([4]; study 1, PH-797804 30 mg oral): 669.06 ng/mL; sputum supernatant cytokine levels compared to placebo ([4]; study 1, PH-797804 30 mg oral, trends towards significance for MCP-1 and MPO): did not significantly inhibit; concentration at 23 h ([6]; study 1): 38.9 ng/mL; concentration at 30.5 h ([6]; study 1): 37.8 ng/mL; concentration at 23 h ([6]; study 2): 56.8 ng/mL; concentration at 30.5 h ([6]; study 2): 49.2 ng/mL
